Structures can show the parent of a compound that is named as a salt.
Tests used:
[1] = test system: P. aeruginosa PAO1 variant, which constitutively expresses AmpC; assay: Combinatorial effect: MIC of piperacillin (PIPC) by agar plate dilution (CLSI) with test compound; type: cell-based; settings: for MIC: Pseudomonas aeruginosa, PAO1; for effect of the compound in combination with an antibiotic: result in words
Protocol: The biological activity of the above-mentioned compounds of formulae (H) and (s) can be measured as follows. Specifically, an enzyme inhibitory activity (IC50 value) against AmpC enzyme which is a class C β-lactamase was determined using nitrocephin as a substrate to check whether or not the compounds had the inhibitory activity and compare the activities of them. Further, using constitutive AmpC producing Pseudomonas aeruginosa, a combined antimicrobial activity (MIC) was measured when using Piperacillin (PIPC) as an antibiotic and the compound of formula (H) or (s) in combination to check whether or not the antimicrobial activity of PIPC could be restored.
The combinatorial effect of the test compound with a β-lactam agent against bacteria was evaluated using AmpC constitutive expression strain selected from P. aeruginosa PAO1 through agent exposure. Using piperacillin (PIPC, Sigma-Aldrich) as a β-lactam agent, measurement was conducted by agar plate dilution process in which minimal inhibitory concentration (MIC) of PIPC is based on Clinical and Laboratory Standards Institute (CLSI process). That is, an agara plate containing 4 µg/mL (final concentration) of test compound and PIPC at each concentration in Mueller-Hinton agar (Becton, Dickinson and Company) was made, and bacteria cultured overnight in cation-adjusted Muller-Hinton broth (Becton, Dickinson and Company) were adjusted in the same medium so as to have 10^4 CFU/spot and inoculated on a plate containing an agent. This plate containing an agent was cultured overnight at 35 °C, and the minimum agent concentration in which no growth of bacteria is observed was determined to be MIC.

AmpC β-lactamase = target: T1, AmpC β-lactamase (Pseudomonas aeruginosa, UniProt P24735); type: biochemical; settings: result in words
T1 construct: a DNA for encoding an AmpC β-lactamase domain excluding a signal peptide was amplified with PCR; made in house; host or cells: E. coli BL21
T1 sequence (P24735 27-397): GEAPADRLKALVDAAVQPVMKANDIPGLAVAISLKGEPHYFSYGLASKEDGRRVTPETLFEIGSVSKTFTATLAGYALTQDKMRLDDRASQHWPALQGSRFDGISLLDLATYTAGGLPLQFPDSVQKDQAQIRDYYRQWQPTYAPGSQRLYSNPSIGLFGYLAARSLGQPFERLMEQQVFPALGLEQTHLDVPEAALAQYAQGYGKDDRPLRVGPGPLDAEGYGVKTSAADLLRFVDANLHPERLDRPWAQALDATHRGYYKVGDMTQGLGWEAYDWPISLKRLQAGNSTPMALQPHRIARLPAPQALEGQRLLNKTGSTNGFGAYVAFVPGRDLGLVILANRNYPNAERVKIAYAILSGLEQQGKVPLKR

Structure (SMILES) | MIC [1] [µg/mL] | effect of the compound in combination with an antibiotic [1] | β-lactamase enzyme inhibitory activity (AmpC β-lactamase)
NC(=O)C1CCC2CN1C(=O)N2OS(=O)(=O)O [Example 23, (2S,5R)-1,6-Diazabicyclo[3.2.1]octane-2-carboxamide, 7-oxo-6-(sulfoxy)-monosodium salt] | 4 | exhibited the activities | exhibited the activities
NC(=O)[C@H]1CC[C@H]2CN1C(=O)N2OS(=O)(=O)O [Example 24, (2R,5S)-1,6-Diazabicyclo[3.2.1]octane-2-carboxamide, 7-oxo-6-(sulfoxy)-monosodium salt] | 64 | exhibited no activity | exhibited no activity
C[C@]1(Cn2ccnn2)[C@H](C(=O)O)N2C(=O)C[C@H]2S1(=O)=O [TAZ, Tazobactam, reference compound] | 64 | – | –

Source: patent EP2657234B1, “OPTICALLY-ACTIVE DIAZABICYCLOOCTANE DERIVATIVE AND METHOD FOR MANUFACTURING SAME” (Meiji Seika Pharma Co., Ltd., priority 2010, dated 2012)
